In PMC6358863, “Involvement of the Hydroperoxy Group in the Irreversible Inhibition of Leukocyte-Type 12-Lipoxygenase by Monoterpene Glycosides Contained in the Qing Shan Lu Shui Tea” (Molecules, 2019):
Like-named read-outs stand apart in the source and are kept apart here.

What was measured:
[1] = biological target: T1, leukocyte-type 12-lipoxygenase (Mus musculus, UniProt P39654); assay: leukocyte-type 12-lipoxygenase inhibition assay (arachidonic acid, HPLC quantification); format: biochemical; settings: 25 μM arachidonic acid, 30 °C, 5 min; for inhibitory effect on leukocyte-type 12-lipoxygenase activity (in words): various concentrations (Figure 5)
T1 sequence (P39654 1-663): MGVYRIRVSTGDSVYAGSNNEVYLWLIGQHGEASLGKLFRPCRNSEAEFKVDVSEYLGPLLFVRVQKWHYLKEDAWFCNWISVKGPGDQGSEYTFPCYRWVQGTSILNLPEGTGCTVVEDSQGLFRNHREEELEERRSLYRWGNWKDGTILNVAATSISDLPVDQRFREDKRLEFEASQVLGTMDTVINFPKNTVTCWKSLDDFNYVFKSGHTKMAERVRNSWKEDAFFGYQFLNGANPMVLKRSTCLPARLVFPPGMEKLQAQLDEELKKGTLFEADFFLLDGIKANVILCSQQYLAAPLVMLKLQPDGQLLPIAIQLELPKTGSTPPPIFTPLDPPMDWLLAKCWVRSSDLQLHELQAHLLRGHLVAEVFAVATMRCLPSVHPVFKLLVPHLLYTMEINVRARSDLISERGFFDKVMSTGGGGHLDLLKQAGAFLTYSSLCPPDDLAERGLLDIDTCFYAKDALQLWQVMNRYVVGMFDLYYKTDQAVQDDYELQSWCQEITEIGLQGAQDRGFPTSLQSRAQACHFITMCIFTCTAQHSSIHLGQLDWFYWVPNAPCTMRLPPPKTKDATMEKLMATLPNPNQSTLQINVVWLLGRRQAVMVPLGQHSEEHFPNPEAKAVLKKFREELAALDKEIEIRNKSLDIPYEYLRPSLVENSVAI
Description: Figure 3 Inhibition of the leukocyte-type 12-lipoxygenase activity by liguroside C (closed circles) and liguroside D (open circles). Leukocyte-type 12-lipoxygenase was incubated with 25 μM arachidonic acid at 30 °C for 5 min in the standard reaction mixture, in the presence of inhibitors at various concentrations and the products were quantified using a reverse-phase HPLC. Relative enzyme activities, as compared with the activity without inhibitors, are shown.
Figure 5 Inhibition of the leukocyte-type 12-lipoxygenase activity by liguroside A (closed circles), kudingoside B (grey circles), kudingoside A (open circles), and lipedoside B-III (open lozenges). Leukocyte-type 12-lipoxygenase was incubated with 25 μM arachidonic acid, at 30 °C, for 5 min, in the standard reaction mixture in the presence of inhibitors, at various concentrations, and the products were quantified using a reverse-phase HPLC. Relative enzyme activities, as compared with the activity without inhibitors, are shown.
The lipoxygenase and cyclooxygenase reactions were carried out, as described previously. Briefly, leukocyte-type 12-lipoxygenase or 15-lipoxygenase-1 was preincubated with inhibitors, in a volume of 0.2 mL in 100 mM Tris-HCl buffer, at pH 7.4, for 5 min at 30 °C, and was then incubated with 25 μM arachidonic acid for 5 min at 30 °C. Platelet-type 12-lipoxygenase reaction was carried out the as same as leukocyte-type 12-lipoxygenase reaction, except for incubation condition of 30 min at 37 °C. 5-Lipoxygenase was preincubated in 100 mM Tris-HCl buffer at pH 7.4, 2 mM CaCl2, and 2 mM ATP, with inhibitors, for 5 min on ice and then incubated with 25 μM arachidonic acid, for 5 min at 30 °C. To reduce the metabolites of each lipoxygenase isozyme, we added glutathione peroxidase (0.1 unit) and 5 mM glutathione to the mixture, followed by incubation for another 20 min. The enzyme reactions of cyclooxygenase-1 and cyclooxygenase-2 were carried out, as described previously. Briefly, cyclooxygenase-1 and cyclooxygenase-2 were preincubated with inhibitors in a volume of 0.2 mL in 100 mM Tris-HCl buffer at pH 7.4, 2 μM hematin, and 5 mM tryptophan, for 5 min at 24 °C, and then incubated with 25 μM […], for 5 min at 24 °C. After the reaction was quenched by an addition of 50 mM HCl, 0.5 nmol of 15-HEDE were added as an internal standard for enzyme reactions. The products extracted with ice-cold diethyl ether were analyzed by a reverse-phase HPLC, using a Waters Alliance system equipped with a COSMOSIL 5C18-MS-II column (5-μm particle, 250 × 4.6 mm i.d., Nacalai), with a solvent system of methanol-water-acetic acid (80:20:0.01, v/v), at a flow rate of 1 mL/min, as previously described. Absorption at 235 nm was continuously monitored, using a Waters 2489 UV/Visible detector (Waters, Milford, MA, USA). Protein concentration was determined using a bicinchoninic acid protein assay kit (Thermo Fisher Scientific, Waltham, MA, USA), with bovine serum albumin as a standard.

[2] = biological target: T1, leukocyte-type 12-lipoxygenase; parameters: method as in PMID 23579993; settings: cited from earlier work
[3] = biological target: T1, leukocyte-type 12-lipoxygenase; assay: reversibility analysis of leukocyte-type 12-lipoxygenase inhibition (preincubation, 200-fold dilution); format: biochemical
Description: The preincubation mixture was 200-fold diluted 0, 5, 15, and 30 min, before starting the enzyme reaction under the standard condition for the lipoxygenase assay. […] On the other hands, tested ligurosides inhibited the leukocyte-type 12-lipoxygenase activity, even after 30 min, indicating an irreversible inhibition of the enzyme activity (Figure 4). Figure 4 Reversibility analysis of the leukocyte-type 12-lipoxygenase inhibition. The leukocyte-type 12-lipoxygenase was preincubated with 6 μM quercetin, liguroside A, liguroside C, and liguroside D, at 30 °C, for 5 min, and then the mixture was 200-fold diluted in the standard lipoxygenase reaction mixture. After 0, 5, 15, and 30 min, the mixtures were incubated with 25 μM arachidonic acid at 30 °C, for 5 min. […] The products extracted with ice-cold diethyl ether were analyzed by a reverse-phase HPLC, using a Waters Alliance system equipped with a COSMOSIL 5C18-MS-II column (5-μm particle, 250 × 4.6 mm i.d., Nacalai), with a solvent system of methanol-water-acetic acid (80:20:0.01, v/v), at a flow rate of 1 mL/min, as previously described. Absorption at 235 nm was continuously monitored, using a Waters 2489 UV/Visible detector (Waters, Milford, MA, USA). Protein concentration was determined using a bicinchoninic acid protein assay kit (Thermo Fisher Scientific, Waltham, MA, USA), with bovine serum albumin as a standard.

With `CC(C)=CCC/C(C)=C/CO[C@@H]1O[C@H](CO)[C@@H](OC(=O)/C=C/c2ccc(O)cc2)[C@H](O[C@@H]2O[C@@H](C)[C@H](O)[C@@H](O)[C@H]2O)[C@H]1O` [kudingoside A] the “inhibitory effect on leukocyte-type 12-lipoxygenase activity (in words)” value (“inhibitory effect” below) [1] was “did not inhibit”.
In the case of `C/C(=C\CO[C@@H]1O[C@H](CO)[C@@H](OC(=O)/C=C/c2ccc(O)cc2)[C@H](O[C@@H]2O[C@@H](C)[C@H](O)[C@@H](O)[C@H]2O)[C@H]1O)C/C=C/C(C)(C)O` [kudingoside B], the “inhibitory effect” value [1] is reported as “lower inhibitory effect”.
For `C/C(=C\CO[C@@H]1O[C@H](CO)[C@@H](OC(=O)/C=C\c2ccc(O)cc2)[C@H](O[C@@H]2O[C@@H](C)[C@H](O)[C@@H](O)[C@H]2O)[C@H]1O)C/C=C/C(C)(C)OO` [liguroside B], the IC50 ([2]; previous report, read-out: IC50, inhibition of leukocyte-type 12-lipoxygenase activity) is listed as 700 nM.
`C=CC(C)(C/C=C/C(C)(C)OO)O[C@@H]1O[C@H](CO)[C@@H](OC(=O)/C=C/c2ccc(O)cc2)[C@H](O[C@@H]2O[C@@H](C)[C@H](O)[C@@H](O)[C@H]2O)[C@H]1O` (stereo partly drawn) [liguroside C, (5E)-7-hydroperoxy-3,7-dimethyl-1,5-octadienyl-3-O-(α-L-rhamnopyranosyl)-(1′′→3′)-(4′′′-O-trans-p-coumaroyl)-β-D-glucopyranoside] gave an IC50 [1] of 2900 nM.
Compound `C=C(C)C(CC/C(C)=C/CO[C@@H]1O[C@H](CO)[C@@H](OC(=O)/C=C/c2ccc(O)cc2)[C@H](O[C@@H]2O[C@@H](C)[C@H](O)[C@@H](O)[C@H]2O)[C@H]1O)OO` (stereo partly drawn) [liguroside D] has an IC50 [1] of 4200 nM.
With `C=CC(C)(CCC=C(C)C)O[C@@H]1O[C@H](CO)[C@@H](OC(=O)/C=C/c2ccc(O)cc2)[C@H](O[C@@H]2O[C@@H](C)[C@H](O)[C@@H](O)[C@H]2O)[C@H]1O` (stereo partly drawn) [lipedoside B-III] the “inhibitory effect” value [1] was “did not inhibit”.
In the case of `O=C(O)C=Cc1ccc(O)cc1` [p-Coumaric acid, reference compound], the “inhibition of leukocyte-type 12-lipoxygenase activity (in words)” value [2] is given as “no inhibition”.
For `O=c1c(O)c(-c2ccc(O)c(O)c2)oc2cc(O)cc(O)c12` [quercetin], the “inhibition of leukocyte-type 12-lipoxygenase activity at 6 μM (in words)” value ([3]; preincubated 5 min with 6 μM, no dilution) was “almost completely inhibited” and the “reversibility of leukocyte-type 12-lipoxygenase inhibition after dilution” value ([3]; preincubation 6 μM 5 min at 30 °C, 200-fold dilution, 0, 5, 15 and 30 min before reaction) was “quickly recovered”.
